What was measured:
PtoMBD [1] = molecular target: T1, PtoMBD (Picrophilus oshimae, UniProt Q6L1T9, D309N); experiment: radio-TLC activity assay; assay type: biochemical; details: labelled compound; 1 μM GGPP, 5 mM MgCl2, sodium acetate pH 5.5, 60 °C
T1 construct: gene PTO0478

PtoMBD [2] = molecular target: T2, PtoMBD (Picrophilus oshimae, UniProt Q6L1T9, D309T); experiment: radio-TLC activity assay; assay type: biochemical; details: labelled compound; 1 μM GGPP, 5 mM MgCl2, sodium acetate pH 5.5, 60 °C
T2 construct: gene PTO0478

PtoMBD [3] = molecular target: T3, PtoMBD (Picrophilus oshimae, UniProt Q6L1T9, R218A/R220A); experiment: radio-TLC activity assay; assay type: biochemical; details: labelled compound; 1 μM GGPP, 5 mM MgCl2, sodium acetate pH 5.5, 60 °C
T3 construct: gene PTO0478

PtoMBD [4] = molecular target: T4, PtoMBD (Picrophilus oshimae, UniProt Q6L1T9); experiment: X-ray crystal structure, […] Å; assay type: binding; details: endogenous E. coli ligand, identity assumed from density (oleic acid fitted), low occupancy, subunit A only; cavity overlapping ATP site of DMD
T4 construct: gene PTO0478
T4 sequence (Q6L1T9 1-349): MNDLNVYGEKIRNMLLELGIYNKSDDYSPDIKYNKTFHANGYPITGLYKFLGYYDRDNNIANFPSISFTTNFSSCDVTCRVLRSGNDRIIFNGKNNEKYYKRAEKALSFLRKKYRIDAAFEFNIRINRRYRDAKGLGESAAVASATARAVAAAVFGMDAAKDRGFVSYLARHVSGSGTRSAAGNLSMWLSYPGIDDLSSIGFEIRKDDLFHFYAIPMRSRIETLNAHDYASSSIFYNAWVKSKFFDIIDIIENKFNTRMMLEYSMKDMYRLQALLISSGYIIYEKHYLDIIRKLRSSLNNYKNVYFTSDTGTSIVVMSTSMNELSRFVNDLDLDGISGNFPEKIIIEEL

[5] = molecular target: the molecule itself; experiment: SEC; HiLoad 16/600 Superdex 200 prep grade, 20 mM sodium phosphate pH 7.4, 500 mM NaCl, 0.6 ml/min; calibrated with gel filtration markers

T3 sequence (Q6L1T9 whole entry R218A/R220A): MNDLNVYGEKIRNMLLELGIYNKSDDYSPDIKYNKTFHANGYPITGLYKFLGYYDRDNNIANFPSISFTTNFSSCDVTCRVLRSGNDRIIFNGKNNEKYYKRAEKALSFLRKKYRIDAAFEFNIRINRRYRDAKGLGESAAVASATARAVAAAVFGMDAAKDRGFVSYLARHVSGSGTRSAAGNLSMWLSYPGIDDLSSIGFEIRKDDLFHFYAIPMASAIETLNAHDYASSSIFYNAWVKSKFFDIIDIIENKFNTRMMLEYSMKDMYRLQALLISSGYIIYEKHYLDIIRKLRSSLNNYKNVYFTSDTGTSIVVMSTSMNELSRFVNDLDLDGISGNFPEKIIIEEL
T2 sequence (Q6L1T9 whole entry D309T): as the sequence (Q6L1T9 whole entry R218A/R220A) above, with A218R, A220R, D309T counted along it
T1 sequence (Q6L1T9 whole entry D309N): as the sequence (Q6L1T9 whole entry R218A/R220A) above, with A218R, A220R, D309N counted along it

C[C@@](CCOP(=O)(O)O)(CC(=O)O)OP(=O)(O)O [MVA3,5BP]
MBD activity (PtoMBD [1]): mutants D309T and D309N leads to the complete loss of MBD activity
MBD activity (PtoMBD [2]): mutants D309T and D309N leads to the complete loss of MBD activity
MBD activity (PtoMBD [3]): the R218A/R220A double mutant was as active as the WT

CCCCCCCC/C=C\CCCCCCCC(=O)O [OLA]
X-ray crystal structure, 2.2 Å (PtoMBD [4]): Oleic acid (OLA) fitted well in the electron density

B1: Picrophilus torridus mevalonate 3,5-bisphosphate decarboxylase (enzyme)
chain: MNDLNVYGEKIRNMLLELGIYNKSDDYSPDIKYNKTFHANGYPITGLYKFLGYYDRDNNIANFPSISFTTNFSSCDVTCRVLRSGNDRIIFNGKNNEKYYKRAEKALSFLRKKYRIDAAFEFNIRINRRYRDAKGLGESAAVASATARAVAAAVFGMDAAKDRGFVSYLARHVSGSGTRSAAGNLSMWLSYPGIDDLSSIGFEIRKDDLFHFYAIPMRSRIETLNAHDYASSSIFYNAWVKSKFFDIIDIIENKFNTRMMLEYSMKDMYRLQALLISSGYIIYEKHYLDIIRKLRSSLNNYKNVYFTSDTGTSIVVMSTSMNELSRFVNDLDLDGISGNFPEKIIIEEL
notes: Mevalonate 3,5-bisphosphate decarboxylase of Picrophilus torridus, gene pto0478; calculated mass of the tagged protein 42,186 Da; also called PtoMBD; MBD; source: E. coli BL21(DE3), pET28a(+), purified (heat treatment, Ni-NTA, HP-Q for crystallization; heat treatment and Ni-NTA only for size-exclusion chromatography); not shown: polyhistidine, N-terminal, kept
stoichiometry N [5]: 2
